{"source": "paper PMC5867624", "about": "“Molecular Characterization of a Novel N-Acetylneuraminate Lyase from a Deep-Sea Symbiotic Mycoplasma” (Marine Drugs, 2018)", "key": {"[1]": {"test_system": "CC(=O)C(=O)O", "assay": "purified protein", "details": "synthesis direction, 20 mM ManNAc fixed, 20 mM phosphate pH 7.0, optimal temperature (65 °C)"}, "[2]": {"target": "T1, MyNal (Mycoplasma sp., UniProt A0A2P1G7E2)", "T1 sequence (A0A2P1G7E2 1-294)": "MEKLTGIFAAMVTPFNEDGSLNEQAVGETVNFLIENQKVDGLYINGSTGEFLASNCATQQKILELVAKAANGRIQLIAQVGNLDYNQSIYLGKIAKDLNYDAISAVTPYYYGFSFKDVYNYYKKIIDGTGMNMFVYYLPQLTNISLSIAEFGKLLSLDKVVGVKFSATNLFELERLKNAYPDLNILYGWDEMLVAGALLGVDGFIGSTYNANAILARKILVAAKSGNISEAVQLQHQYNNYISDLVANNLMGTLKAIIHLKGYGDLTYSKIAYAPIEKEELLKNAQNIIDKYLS", "assay": "HPLC of Neu5Ac formed, synthesis", "set-up": "gene nanA", "details": "synthesis direction; 20 mM pyruvate fixed; 20 mM phosphate pH 7.0; optimal temperature (65 °C)"}, "[3]": {"target": "T1, MyNal", "assay": "LDH/NADH coupled spectrophotometric assay, […] nm, cleavage", "format": "biochemical", "set-up": "gene nanA; full-length gene (885 bp) in pET-32a(+), fusion tags kept, about 52 kDa, E. coli BL21(DE3), Ni-NTA", "details": "cleavage direction; 20 mM phosphate pH 7.0; optimal temperature and pH (optimum 70 °C)"}}, "data": [{"compound": "MyNal (Mycoplasma sp.)", "values": [{"measurement": "Km", "setting": "[1]", "result": "5.9 ± 0.9", "unit": "mM"}]}, {"compound": "CC(=O)N[C@@H]1C(O)O[C@H](CO)[C@@H](O)[C@@H]1O", "note": "(stereo partly drawn) [ManNAc]", "values": [{"measurement": "Km", "setting": "[2]", "result": "6.9 ± 0.5", "unit": "mM"}]}, {"compound": "CC(=O)N[C@H]1[C@H]([C@H](O)[C@H](O)CO)OC(O)(C(=O)O)C[C@@H]1O", "note": "(stereo partly drawn) [Neu5Ac]", "values": [{"measurement": "Km", "setting": "[3]", "result": "1.8 ± 0.2", "unit": "mM"}]}]}
